This passage reports SCC cells alive and Kd results from US11685766B2, “14-3-3 targeting peptides for cancer treatment” (Creighton University, priority 2019, dated 2023).

One assay concerns SCC12B.2 cells. It counts as cell-based, human. The conditions noted are these: 5-FU alone, concentration printed as 2004, FIG. 1D. Here is the method:
Human skin cancer cell lines (SCC12B.2, SCC13, SRB12) were maintained in Dulbecco's modified Eagle's medium (DMEM) (Invitrogen, Carlsbad, Calif., USA) supplemented with 1% penicillin (10 000 U/ml)-streptomycin (10 000 μg/ml) (PenStrep) (Invitrogen) and 10% fetal bovine serum (Gemini Bio-Products, Sacramento, Calif., USA) at 37° C. and 5% CO2. Normal human epidermal keratinocytes (nHEK) (Thermo Scientific, Waltham, Mass., USA) isolated from neonatal foreskin were cultured in EpiLife medium (Invitrogen) supplemented with human keratinocyte growth supplement (Invitrogen) and 1% PenStrep (Invitrogen). Cells were transfected with control pcDNA or pcDNA3.1-HA-14-3-3ε (Addgene plasmid #48797; http://n2t.net/addgene:48797; RRID:Addgene_48797) using Lipofectamine/Plus reagents (Life Technologies, Carlsbad, Calif., USA) or with siRNA targeting 14-3-3ε (Dharmacon, Lafayette, Colo., USA), 14-3-3γ (Dharmacon), 14-3-3ζ, (Dharmacon), Survivin (Cell Signaling, Danvers, Mass., USA), Akt (Dharmacon) or control siRNA (Santa Cruz Biotechnology, Dallas, Tex., USA) using siQuest transfection reagents (Mirus Bio, Madison, Wis., USA) or treated with Akt inhibitor GSK690693 (Tocris Bioscience, Bristol, United Kingdom) or cell cycle inhibitor 5-Fluorouracil (5-FU) (Thermo Fisher) resuspended in DMSO.
To determine the half maximal inhibitory concentration (IC50) for ES1P2 in SCC12B.2 and nHEK cells, cells were plated in a 96-well plate at a density of 6×10^3 cells/well. Twenty-four hours after plating, cells were treated with increasing concentrations of ES1P2 (0-75 μM) in Opti MEM medium supplemented with reduced serum (Invitrogen) for 4 consecutive days. ES1P2 peptide was resuspended fresh, daily in 25 mM Tris buffer (pH 7.5). Neutral Red Cell Viability assays were performed, where absorbance was measured using a Cytation 5 multi-mode plate reader (BioTek). The experiment was repeated three separate times with 4 replicate wells per experiment to obtain an average IC50 value.
Carcinoma human cell lines (SCC12B.2 and SCC13) were maintained in Dulbecco's modified Eagle's medium (DMEM) (Invitrogen, Carlsbad, Calif., USA) supplemented with 1% penicillin (10 000 U/ml)-streptomycin (10 000 μg/ml) (PenStrep) (Invitrogen) and 10% fetal bovine serum (Gemini Bio-Products, Sacramento, Calif., USA) at 37° C. and 5% CO2. Primary normal human epidermal keratinocytes (nHEK) (Thermo Fisher Scientific, Waltham, Mass., USA) isolated from neonatal foreskin were maintained in EpiLife medium (Invitrogen) supplemented with human keratinocyte growth supplement (HKGS) and 1% PenStrep. nHEK cells were not passaged more than twice before experiments. Cells were treated with CDC25A inhibitor NSC663284 (Tocris Bioscience, Bristol, United Kingdom) suspended in DMSO, transfected with wild type CDC25A or control plasmid using Lipofectamine/Plus transfection reagents (Life Technologies, Carlsbad, Calif., USA) or transfected with siRNA targeting 14-3-3 ε or control siRNA (Santa Cruz Biotechnology, Dallas, Tex., USA) using siQuest transfection reagents (Mirus Bio, Madison, Wis., USA).
To determine the half maximal inhibitory concentration (IC50) for pS and pT in SCC12B.2 cells, cells were plated in a 96-well plate at a density of 6×10^3 cells/well. […] Neutral Red Cell Viability assays were performed, where absorbance was measured using a Cytation 5 multi-mode plate reader (BioTek). […]

A further assay addresses T1, 14-3-3ε protein (Homo sapiens, UniProt P62258).
T1 sequence (P62258 1-255): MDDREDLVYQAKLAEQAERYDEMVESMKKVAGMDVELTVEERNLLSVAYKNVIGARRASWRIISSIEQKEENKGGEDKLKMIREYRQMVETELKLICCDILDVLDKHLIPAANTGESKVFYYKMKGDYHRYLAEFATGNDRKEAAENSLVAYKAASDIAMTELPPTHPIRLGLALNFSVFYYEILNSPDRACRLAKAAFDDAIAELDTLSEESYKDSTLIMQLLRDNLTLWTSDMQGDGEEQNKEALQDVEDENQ
Briefly: Differential scanning fluorimetry (DSF) binding. The conditions noted are these: 7 μM 14-3-3ε, ΔTm vs peptide concentration, Hill fit; read-out: Kd, binding affinity to 14-3-3ε protein (DSF). As for the experimental part:
Differential scanning fluorimetry (DSF) experiments were performed using BioRad CFX384 Real-Time qPCR attached with C1000 Touch Thermo Cycler in the FRET channel. 7 μM subunits of 14-3-3ε protein, ten molar excess of Sypro Orange and 20 mM Tris-HCl, pH 7.4 assay buffer were used in all the melting experiments. Stock solution of peptides were prepared by dissolving 1 mg of lyophilized peptides in 20 mM Tris, pH 7.4 buffer and 0.1 μM to 200 μM dilution series were prepared. Protein melting experiments were performed both in the absence and the presence of increasing concentration of peptides. 15 μL of each samples (in triplicate) were put into each well of a 384-well white PCR plate and sealed with optical adhesive sealer (BioRad MSB-1001) and any air-bubble in the solutions were removed by spinning the plate vertically with PCR plate spinner (Labnet MPS 1000) at 1000 RPM for 3 minutes. The temperature was increased from 25° C. to 95° C. at a rate of 0.7° C. per minute. Melting temperatures of each well were determined using the CFX Maestro software version 2.0 by plotting the first derivative of fluorescence signal against temperature. All the measurements were performed in triplicate and the deviations of melting temperatures (ΔTm) presented for each samples were calculated relatively to three control samples (7 μM 14-3-3ε in the absence of the peptide). Binding constant (Kd) for each peptide was calculated by plotting ΔTm against peptide concentration and data points were fitted with Hill's equation using GraphPad 9.0 software.

Peptide text beside a SMILES is read from it.

`O=c1[nH]cc(F)c(=O)[nH]1` [5-FU, 5-Fluorouracil, reference compound] displayed an SCC cells alive with SCC12B.2 cells of 71.5 % alive.
Turning to `CC(=O)N[C@@H](CCCNC(=N)N)C(=O)N[C@H](C(=O)N[C@@H](CCCCN)C(=O)N[C@@H](CO)C(=O)N[C@@H](CCCNC(=N)N)C(=O)N[C@H](C(=O)N[C@@H](Cc1ccc(O)cc1)C(=O)N[C@@H](C)C(=O)NCC(N)=O)[C@@H](C)OP(=O)(O)O)[C@@H](C)O` [Ac-Arg-Thr-Lys-Ser-Arg-Thr(PO3^2−)-Tyr-Ala-Gly-NH2] (HELM PEPTIDE1{[ac].R.T.K.S.R.[C[C@@H](OP(=O)(O)O)[C@H](N[*:1])C(=O)[*:2]].Y.A.G.[am]}$$$$V2.0), the Kd on 14-3-3ε protein came out at 2.34 µM.
As to `CC(=O)N[C@@H](CCC(N)=O)C(=O)N[C@@H](CCCNC(=N)N)C(=O)N[C@@H](Cc1ccccc1)C(=O)N[C@@H](CC(N)=O)C(=O)N[C@@H](COP(=O)(O)O)C(=O)N[C@@H](C)C(=O)N1CCC[C@H]1C(=O)N[C@@H](C)C(=O)N[C@@H](CCCNC(=N)N)C(N)=O` [Ac-Gln-Arg-Phe-Asn-Ser-(PO3^2−)-Ala-Pro-Ala-Arg-NH2] (HELM PEPTIDE1{[ac].Q.R.F.N.[O=C([C@H](COP(=O)(O)O)N[*:1])[*:2]].A.P.A.R.[am]}$$$$V2.0), on 14-3-3ε protein, the dissociation constant (Kd) worked out at 8.29 µM.
Still for that read-out and setting: to `CC(=O)N[C@@H](CCC(N)=O)C(=O)N[C@@H](CCCNC(=N)N)C(=O)N[C@@H](Cc1ccc(O)cc1)C(=O)N[C@@H](CC(N)=O)C(=O)N[C@@H](COP(=O)(O)O)C(=O)N[C@@H](C)C(=O)N1CCC[C@H]1C(=O)N[C@@H](C)C(=O)N[C@@H](CCCNC(=N)N)C(N)=O` [Ac-Gln-Arg-Tyr-Asn-Ser-(PO3^2−)-Ala-Pro-Ala-Arg-NH2] (HELM PEPTIDE1{[ac].Q.R.Y.N.[O=C([C@H](COP(=O)(O)O)N[*:1])[*:2]].A.P.A.R.[am]}$$$$V2.0) belongs 9.34 µM.
